Experiments:
[1] = system: HCV replicon in HUH-7 cells; assay: HCV replicon FRET assay; assay type: cell-based, Hepatitis C virus (strain 1b); settings: Hepatitis C virus, Huh-7, read-out: EC50 Range, HCV replicon cell assay; Table 1
Source text: An HCV replicon whole cell system was established as described by Lohmann V, Korner F, Koch J, Herian U, Theilmann L, Bartenschlager R., Science 285(5424): 110-3 (1999). This system enabled us to evaluate the effects of our HCV Protease compounds on HCV RNA replication. Briefly, using the HCV strain 1b sequence described in the Lohmann paper (Assession number: AJ238799), an HCV cDNA was synthesized by Operon Technologies, Inc. (Alameda, Calif.), and the full-length replicon was then assembled in plasmid pGem9zf(+) (Promega, Madison, Wis.) using standard molecular biology techniques. The replicon consists of (i) the HCV 5′ UTR fused to the first 12 amino acids of the capsid protein, (ii) the neomycin phosphotransferase gene (neo), (iii) the IRES from encephalomyocarditis virus (EMCV), and (iv) HCV NS3 to NS5B genes and the HCV 3′ UTR. Plasmid DNAs were linearized with ScaI and RNA transcripts were synthesized in vitro using the T7 MegaScript transcription kit (Ambion, Austin, Tex.) according to manufacturer's directions. In vitro transcripts of the cDNA were transfected into the human hepatoma cell line, HUH-7. […] Resulting cell lines were characterized for positive and negative strand RNA production and protein production over time.
The HCV replicon FRET assay was developed to monitor the inhibitory effects of compounds described in the disclosure on HCV viral replication. HUH-7 cells, constitutively expressing the HCV replicon, were grown in Dulbecco's Modified Eagle Media (DMEM) (Gibco-BRL) containing 10% Fetal calf serum (FCS) (Sigma) and 1 mg/ml G418 (Gibco-BRL). Cells were seeded the night before (1.5×10^4 cells/well) in 96-well tissue-culture sterile plates. Compound and no compound controls were prepared in DMEM containing 4% FCS, 1:100 Penicillin/Streptomysin (Gibco-BRL), 1:100 L-glutamine and 5% DMSO in the dilution plate (0.5% DMSO final concentration in the assay). Compound/DMSO mixes were added to the cells and incubated for 4 days at 37° C. After 4 days, cells were first assessed for cytotoxicity using alamar Blue (Trek Diagnotstic Systems) for a CC50 reading. The toxicity of compound (CC50) was determined by adding 1/10th volume of alamarBlue to the media incubating the cells. After 4 h, the fluorescence signal from each well was read, with an excitation wavelength at 530 nm and an emission wavelength of 580 nm, using the Cytofluor Series 4000 (Perspective Biosystems). Plates were then rinsed thoroughly with Phosphate-Buffered Saline (PBS) (3 times 150 μl). The cells were lysed with 25 μl of a lysis assay reagent containing an HCV protease substrate (5× cell Luciferase cell culture lysis reagent (Promega #E153A) diluted to 1× with distilled water, NaCl added to 150 mM final, the FRET peptide substrate (as described for the enzyme assay above) diluted to 10 μM final from a 2 mM stock in 100% DMSO. The plate was then placed into the Cytofluor 4000 instrument which had been set to 340 nm excitation/490 nm emissions, automatic mode for 21 cycles and the plate read in a kinetic mode. EC50 determinations were carried out as described for the IC50 determinations.

[2] = biological target: T1, HCV NS3/4A protease complex (BMS strain) (UniProt P27958); assay: FRET peptide assay to monitor HCV NS3/4A proteolytic activity, BMS strain; assay type: biochemical, Hepatitis C virus (genotype 1a); settings: read-out: IC50 Range; HCV NS3/4A enzyme assay; Table 1
T1 construct: other: HCV NS3/4A enzyme assay; said of H77 and J4L6S; fused on or other part: Three-lysine solubilising tail at the NS4A C-terminus and a His tag from pET21b (Ni-NTA purification), for the H77 and J4L6S constructs
T1 sequence (P27958 1027-1657, one chain of several): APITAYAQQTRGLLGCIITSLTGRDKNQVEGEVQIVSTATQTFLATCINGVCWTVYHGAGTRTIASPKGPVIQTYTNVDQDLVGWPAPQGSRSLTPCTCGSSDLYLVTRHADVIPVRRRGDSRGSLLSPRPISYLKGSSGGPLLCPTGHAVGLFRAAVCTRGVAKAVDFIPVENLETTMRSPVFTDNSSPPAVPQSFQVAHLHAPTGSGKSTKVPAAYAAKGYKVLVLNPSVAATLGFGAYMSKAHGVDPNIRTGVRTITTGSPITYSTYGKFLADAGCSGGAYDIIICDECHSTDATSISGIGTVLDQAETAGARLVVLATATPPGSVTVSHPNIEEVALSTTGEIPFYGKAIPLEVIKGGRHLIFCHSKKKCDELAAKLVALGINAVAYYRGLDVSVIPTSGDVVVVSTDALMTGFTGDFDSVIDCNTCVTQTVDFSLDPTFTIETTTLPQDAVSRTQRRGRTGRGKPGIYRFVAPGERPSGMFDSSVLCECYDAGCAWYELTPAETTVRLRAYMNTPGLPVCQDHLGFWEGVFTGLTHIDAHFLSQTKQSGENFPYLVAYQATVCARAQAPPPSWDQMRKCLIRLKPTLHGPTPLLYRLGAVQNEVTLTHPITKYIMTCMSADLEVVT
Source text: HCV NS3 protease complexes, derived from the BMS strain, H77 strain or J4L6S strain, were generated, as described below. These purified recombinant proteins were generated for use in a homogeneous assay (see below) to provide an indication of how effective compounds of the present disclosure would be in inhibiting HCV NS3 proteolytic activity.
Serum from an HCV-infected patient was obtained from Dr. T. Wright, San Francisco Hospital. An engineered full-length cDNA (compliment deoxyribonucleic acid) template of the HCV genome (BMS strain) was constructed from DNA fragments obtained by reverse transcription-PCR (RT-PCR) of serum RNA (ribonucleic acid) and using primers selected on the basis of homology between other genotype 1a strains. From the determination of the entire genome sequence, a genotype 1a was assigned to the HCV isolate according to the classification of Simmonds et al. (See P Simmonds, K A Rose, S Graham, S W Chan, F McOmish, B C Dow, E A Follett, P L Yap and […] Marsden, J. Clin. Microbiol., 31(6), 1493-1503 (1993)). […] The infectious clones, H77 (1a genotype) and J4L6S (1b genotype) were obtained from R. Purcell (NIH) and the sequences are published in Genbank (AAB67036, see Yanagi, M., Purcell, R. H., Emerson, S. U. and Bukh, J. Proc. Natl. Acad. Sci. U.S.A. 94(16), 8738-8743 (1997); AF054247, see Yanagi, M., St Claire, M., Shapiro, M., Emerson, S. U., Purcell, R. H. and Bukh, J, Virology 244 (1), 161-172. (1998)).
NS3/4A protease complex-containing fractions were pooled and loaded on a desalting column Superdex-S200 pre-equilibrated with buffer D (25 mM HEPES, pH 7.5, 20% glycerol, 300 mM NaCl, 0.2% Triton X-100, 10 mM βME). Sample was loaded at a flow rate of 1 mL/min. NS3/4A protease complex-containing fractions were pooled and concentrated to approximately 0.5 mg/ml. The purity of the NS3/4A protease complexes, derived from the BMS, H77 and J4L6S strains, were judged to be greater than 90% by SDS-PAGE and mass spectrometry analyses. The enzyme was stored at −80° C., thawed on ice and diluted prior to use in assay buffer.
The purpose of this in vitro assay was to measure the inhibition of HCV NS3 protease complexes, derived from the BMS strain, H77 strain or J4L6S strain, as described above, by compounds of the present disclosure. This assay provides an indication of how effective compounds of the present disclosure would be in inhibiting HCV NS3 proteolytic activity.
In order to monitor HCV NS3/4A protease activity, an NS3/4A peptide substrate was used. The substrate was RET S1 (Resonance Energy Transfer Depsipeptide Substrate; AnaSpec, Inc. cat # 22991) (FRET peptide), described by Taliani et al. in Anal. Biochem. 240(2):60-67 (1996). The sequence of this peptide is loosely based on the NS4A/NS4B natural cleavage site for the HCV NS3 protease except there is an ester linkage rather than an amide bond at the cleavage site. The peptide also contains a fluorescence donor, EDANS, near one end of the peptide and an acceptor, DABCYL, near the other end. The fluorescence of the peptide is quenched by […] resonance energy transfer (RET) between the donor and the acceptor, but as the NS3 protease cleaves the peptide the products are released from RET quenching and the fluorescence of the donor becomes apparent.
The peptide substrate was incubated with one of the three recombinant NS3/4A protease complexes, in the absence or presence of a compound of the present disclosure. The inhibitory effects of a compound were determined by monitoring the formation of fluorescent reaction product in real time using a Cytofluor Series 4000.
Assay buffer: 50 mM HEPES, pH 7.5; 0.15 M NaCl; 0.1% Triton; 15% Glycerol; 10 mM βME. Substrate: 2 μM final concentration (from a 2 mM stock solution in DMSO stored at −20° C.). HCV NS3/4A protease type 1a (1b), 2-3 nM final concentration (from a 5 μM stock solution in 25 mM HEPES, pH 7.5, 20% glycerol, 300 mM NaCl, 0.2% Triton-X100, 10 mM βME). […]

Row | Compound | EC50 [1] [µM] | IC50 [2] [µM]
1 | C=C[C@@H]1CC1(NC(=O)[C@@H]1C[C@@H](Oc2cc(-c3ccccc3)nc3cc(OC)ccc23)CN1C(=O)[C@@H](OC(=O)NC(C)(C)C)C(C)(C)C)C(=O)NS(=O)(=O)C1(CC2CC2)CC1 (stereo partly drawn) [Example 22] | 0.5 to 5 | < 0.1
2 | CCC1C[C@]1(NC(=O)[C@@H]1C[C@@H](Oc2cc(-c3ccccc3)nc3cc(OC)ccc23)CN1C(=O)C(O)C(C)(C)C)C(=O)NS(=O)(=O)C1CC1 (stereo partly drawn) [Example 10] | 0.5 to 5 | < 0.1
3 | C=C[C@@H]1C[C@]1(NC(=O)[C@@H]1C[C@@H](Oc2cc(-c3ccccc3)nc3cc(OC)ccc23)CN1C(=O)C(O)c1ccccc1)C(=O)NS(=O)(=O)C1CC1 (stereo partly drawn) [Example 14] | > 5 | 0.1 to 1
4 | C=C[C@@H]1C[C@]1(NC(=O)C1CC(Oc2cc(-c3ccccc3)nc3cc(OC)ccc23)CN1C(=O)[C@@H](O)C(C)(C)C)C(=O)NS(=O)(=O)C1CC1 (stereo partly drawn) [Example 4,Compound 8] | 0.5 to 5 | < 0.1
5 | C=C[C@@H]1C[C@]1(NC(=O)[C@@H]1C[C@@H](Oc2nccc3ccccc23)CN1C(=O)[C@@H](OC(=O)Nc1ccccc1C(C)C)C(C)(C)C)C(=O)NS(=O)(=O)C1CC1 [Example 32] | 0.5 to 5 | 0.1 to 1
6 | C=C[C@@H]1C[C@]1(NC(=O)[C@@H]1C[C@@H](Oc2cc(-c3ccccc3)nc3cc(OC)ccc23)CN1C(=O)[C@@H](OC(=O)NC(C)C)C(C)(C)C)C(=O)NS(=O)(=O)C1CC1 [Example 5,Compound 2] | < 0.5 | < 0.1
7 | C=C[C@@H]1C[C@]1(NC(=O)[C@@H]1C[C@@H](Oc2nccc3ccccc23)CN1C(=O)[C@@H](OC(=O)NC1CCCC1)C(C)(C)C)C(=O)NS(=O)(=O)C1CC1 [Example 9] | 0.5 to 5 | 0.1 to 1
8 | C=C[C@@H]1C[C@]1(NC(=O)[C@@H]1C[C@@H](Oc2cc(-c3ccccc3)nc3cc(OC)ccc23)CN1C(=O)[C@@H](O)C1CCCCC1)C(=O)NS(=O)(=O)C1CC1 [Example 4,Compound 4] | 0.5 to 5 | < 0.1
9 | C=C[C@@H]1C[C@]1(NC(=O)[C@@H]1C[C@@H](Oc2nccc3ccccc23)CN1C(=O)[C@@H](OC(=O)NC1CCCCC1)C(C)(C)C)C(=O)NS(=O)(=O)C1CC1 [Example 27] | 0.5 to 5 | < 0.1
10 | C=C[C@@H]1C[C@]1(NC(=O)[C@@H]1C[C@@H](Oc2nc(-c3ccc(OC(F)(F)F)cc3)cc3cc(OC)ccc23)CN1C(=O)[C@@H](OC(=O)NC(C)(C)C)C(C)(C)C)C(=O)NS(=O)(=O)C1CC1 [Example 23] | 0.5 to 5 | < 0.1
11 | C=C[C@@H]1C[C@]1(NC(=O)[C@@H]1C[C@@H](Oc2nccc3ccccc23)CN1C(=O)[C@@H](OC(=O)Nc1ccccc1)C(C)(C)C)C(=O)NS(=O)(=O)C1CC1 [Example 28] | 0.5 to 5 | 0.1 to 1
12 | C=C[C@@H]1C[C@]1(NC(=O)[C@@H]1C[C@@H](Oc2cc(-c3ccccc3)nc3cc(OC)ccc23)CN1C(=O)[C@@H](OC(=O)Nc1ccc(N(C)C)cc1)C(C)(C)C)C(=O)NS(=O)(=O)C1CC1 [Example 5,Compound 7] | 0.5 to 5 | 0.1 to 1
13 | C=C[C@@H]1C[C@]1(NC(=O)[C@@H]1C[C@@H](Oc2cc(-c3ccccc3)nc3cc(OC)ccc23)CN1C(=O)[C@@H](O)CC(C)C)C(=O)NS(=O)(=O)C1CC1 [Example 4,Compound 6] | 0.5 to 5 | < 0.1
14 | C=C[C@@H]1C[C@]1(NC(=O)[C@@H]1C[C@@H](Oc2nccc3ccccc23)CN1C(=O)[C@@H](OC(=O)NC(C)(C)C)C(C)(C)C)C(=O)NS(=O)(=O)C1CC1 [Example 24] | 0.5 to 5 | 0.1 to 1
15 | C=C[C@@H]1C[C@]1(NC(=O)[C@@H]1C[C@@H](Oc2nccc3cc(OC)ccc23)CN1C(=O)[C@@H](OC(=O)NC(C)(C)C)C(C)(C)C)C(=O)NS(=O)(=O)N(C)C [Example 58Compound 58] | 0.5 to 5 | < 0.1
16 | CCC1C[C@]1(NC(=O)[C@@H]1C[C@@H](Oc2cc(-c3ccccc3)nc3cc(OC)ccc23)CN1C(=O)C1(O)CC1)C(=O)NS(=O)(=O)C1CC1 (stereo partly drawn) [Example 15] | 0.5 to 5 | 0.1 to 1
17 | C=C[C@@H]1C[C@]1(NC(=O)[C@@H]1C[C@@H](Oc2cc(-c3ccccc3)nc3cc(OC)ccc23)CN1C(=O)[C@@H](OC(=O)Nc1ccc(OC)cc1)C(C)(C)C)C(=O)NS(=O)(=O)C1CC1 [Example 5,Compound 5] | 0.5 to 5 | 0.1 to 1
18 | C=C[C@@H]1C[C@]1(NC(=O)[C@@H]1C[C@@H](Oc2cc(-c3ccccc3)nc3cc(OC)ccc23)CN1C(=O)C1CC1)C(=O)NS(=O)(=O)C1CC1 [Example 19] |  | 0.1 to 1
19 | C=CCCCCCC(O)C(=O)N1C[C@H](Oc2nc(-c3ccccc3)cc3cc(OC)ccc23)CC1C(=O)N[C@]1(C(=O)NS(=O)(=O)C2CC2)CC1C=C (stereo partly drawn) [Example 21] |  | 0.1 to 1
